Laboratory results from PubChem BioAssay AID1259407 (Chemical Carcinogenesis Research Information System (CCRIS), 2018).
The source made the active and inactive calls. No rule for the calls is given here.

Tested on: CCRIS mutagenicity, Ames/micronucleus/aberration tests
Assay: CCRIS mutagenicity studies
[1] = Test System: AMES SALMONELLA TYPHIMURIUM, Strain/Indicator: TA98, Metabolic Activation: NONE, Method: PREINCUBATION
[2] = Test System: AMES SALMONELLA TYPHIMURIUM, Strain/Indicator: TA100, Metabolic Activation: NONE, Method: PREINCUBATION
[3] = Test System: AMES SALMONELLA TYPHIMURIUM, Strain/Indicator: TA98, Metabolic Activation: NONE, Method: STANDARD PLATE
[4] = Test System: AMES SALMONELLA TYPHIMURIUM, Strain/Indicator: TA100, Metabolic Activation: NONE, Method: STANDARD PLATE

Measured: mutagenic call

C=CCOC(=O)C=C
inactive: Test System: AMES SALMONELLA TYPHIMURIUM, Strain/Indicator: TA97, Metabolic Activation: HAMSTER, LIVER, S-9, AROCLOR 1254 (10 OR 30%), Method: PREINCUBATION inactive; negative | Test System: AMES SALMONELLA TYPHIMURIUM, Strain/Indicator: TA97, Metabolic Activation: NONE, Method: PREINCUBATION inactive; negative | Test System: AMES SALMONELLA TYPHIMURIUM, Strain/Indicator: TA97, Metabolic Activation: RAT, LIVER, S-9, AROCLOR 1254 (10 OR 30%), Method: PREINCUBATION inactive; negative | Test System: AMES SALMONELLA TYPHIMURIUM, Strain/Indicator: TA98, Metabolic Activation: HAMSTER, LIVER, S-9, AROCLOR 1254 (10%), Method: PREINCUBATION inactive; negative | Test System: AMES SALMONELLA TYPHIMURIUM, Strain/Indicator: TA98, Metabolic Activation: HAMSTER, LIVER, S-9, AROCLOR 1254 (30%), Method: PREINCUBATION inactive; negative | [1] inactive; negative | Test System: AMES SALMONELLA TYPHIMURIUM, Strain/Indicator: TA98, Metabolic Activation: RAT, LIVER, S-9, AROCLOR 1254 (10%), Method: PREINCUBATION inactive; negative | Test System: AMES SALMONELLA TYPHIMURIUM, Strain/Indicator: TA98, Metabolic Activation: RAT, LIVER, S-9, AROCLOR 1254 (30%), Method: PREINCUBATION inactive; negative | Test System: AMES SALMONELLA TYPHIMURIUM, Strain/Indicator: TA100, Metabolic Activation: HAMSTER, LIVER, S-9, AROCLOR 1254 (10%), Method: PREINCUBATION inactive; negative | Test System: AMES SALMONELLA TYPHIMURIUM, Strain/Indicator: TA100, Metabolic Activation: HAMSTER, LIVER, S-9, AROCLOR 1254 (30%), Method: PREINCUBATION inactive; negative | [2] inactive; negative | Test System: AMES SALMONELLA TYPHIMURIUM, Strain/Indicator: TA100, Metabolic Activation: RAT, LIVER, S-9, AROCLOR 1254 (10%), Method: PREINCUBATION inactive; negative | Test System: AMES SALMONELLA TYPHIMURIUM, Strain/Indicator: TA100, Metabolic Activation: RAT, LIVER, S-9, AROCLOR 1254 (30%), Method: PREINCUBATION inactive; negative | Test System: AMES SALMONELLA TYPHIMURIUM, Strain/Indicator: TA1535, Metabolic Activation: HAMSTER, LIVER, S-9, AROCLOR 1254 (10%), Method: PREINCUBATION inactive; negative | Test System: AMES SALMONELLA TYPHIMURIUM, Strain/Indicator: TA1535, Metabolic Activation: HAMSTER, LIVER, S-9, AROCLOR 1254 (30%), Method: PREINCUBATION inactive; negative | Test System: AMES SALMONELLA TYPHIMURIUM, Strain/Indicator: TA1535, Metabolic Activation: NONE, Method: PREINCUBATION inactive; negative | Test System: AMES SALMONELLA TYPHIMURIUM, Strain/Indicator: TA1535, Metabolic Activation: RAT, LIVER, S-9, AROCLOR 1254 (10%), Method: PREINCUBATION inactive; negative | Test System: AMES SALMONELLA TYPHIMURIUM, Strain/Indicator: TA1535, Metabolic Activation: RAT, LIVER, S-9, AROCLOR 1254 (30%), Method: PREINCUBATION inactive; negative | Test System: AMES SALMONELLA TYPHIMURIUM, Strain/Indicator: TA1537, Metabolic Activation: HAMSTER, LIVER, S-9, AROCLOR 1254 (10%), Method: PREINCUBATION inactive; negative | Test System: AMES SALMONELLA TYPHIMURIUM, Strain/Indicator: TA1537, Metabolic Activation: NONE, Method: PREINCUBATION inactive; negative | Test System: AMES SALMONELLA TYPHIMURIUM, Strain/Indicator: TA1537, Metabolic Activation: RAT, LIVER, S-9, AROCLOR 1254 (10%), Method: PREINCUBATION inactive; negative

c1ccc2c(c1)ccc1cc3ccc4ccccc4c3nc12
active: Test System: AMES SALMONELLA TYPHIMURIUM, Strain/Indicator: TA100, Metabolic Activation: RAT, LIVER, S-9, PHENOBARBITAL AND 5,6-BENZOFLAVONE, Method: STANDARD PLATE active; positive

CCOC(=O)Cc1c(C(=O)O)c2ccccc2n1C
inactive: Test System: AMES SALMONELLA TYPHIMURIUM, Strain/Indicator: TA97, Metabolic Activation: NONE, Method: STANDARD PLATE inactive; negative | Test System: AMES SALMONELLA TYPHIMURIUM, Strain/Indicator: TA97, Metabolic Activation: RAT, LIVER, S-9, AROCLOR 1254 (4%, 10%), Method: STANDARD PLATE inactive; negative | [3] inactive; negative | Test System: AMES SALMONELLA TYPHIMURIUM, Strain/Indicator: TA98, Metabolic Activation: RAT, LIVER, S-9, AROCLOR 1254 (4%, 10%), Method: STANDARD PLATE inactive; negative | [4] inactive; negative | Test System: AMES SALMONELLA TYPHIMURIUM, Strain/Indicator: TA100, Metabolic Activation: RAT, LIVER, S-9, AROCLOR 1254 (4%, 10%), Method: STANDARD PLATE inactive; negative | Test System: AMES SALMONELLA TYPHIMURIUM, Strain/Indicator: TA102, Metabolic Activation: NONE, Method: STANDARD PLATE inactive; negative | Test System: AMES SALMONELLA TYPHIMURIUM, Strain/Indicator: TA102, Metabolic Activation: RAT, LIVER, S-9, AROCLOR 1254 (4%, 10%), Method: STANDARD PLATE inactive; negative

O=C(CBr)c1ccccc1
active: Test System: MOUSE LYMPHOMA, Strain/Indicator: L5178Y (TK+/TK-), Metabolic Activation: RAT, LIVER, S-9, AROCLOR 1254, Method: SUSPENSION/PLATE active; positive. reevaluation of results: inconclusive
inactive: Test System: AMES SALMONELLA TYPHIMURIUM, Strain/Indicator: TA98, Metabolic Activation: HAMSTER, LIVER, S-9, AROCLOR 1254, Method: STANDARD PLATE inactive; negative | [1] inactive; negative | [3] inactive; negative | Test System: AMES SALMONELLA TYPHIMURIUM, Strain/Indicator: TA98, Metabolic Activation: RAT, LIVER, S-9, AROCLOR 1254, Method: STANDARD PLATE inactive; negative | Test System: AMES SALMONELLA TYPHIMURIUM, Strain/Indicator: TA98, Metabolic Activation: RAT, LIVER, S-9, PCB, Method: PREINCUBATION inactive; negative | Test System: AMES SALMONELLA TYPHIMURIUM, Strain/Indicator: TA100, Metabolic Activation: HAMSTER, LIVER, S-9, AROCLOR 1254, Method: STANDARD PLATE inactive; negative | [2] inactive; negative | [4] inactive; negative | Test System: AMES SALMONELLA TYPHIMURIUM, Strain/Indicator: TA100, Metabolic Activation: RAT, LIVER, S-9, AROCLOR 1254, Method: STANDARD PLATE inactive; negative | Test System: AMES SALMONELLA TYPHIMURIUM, Strain/Indicator: TA100, Metabolic Activation: RAT, LIVER, S-9, PCB, Method: PREINCUBATION inactive; negative | Test System: AMES SALMONELLA TYPHIMURIUM, Strain/Indicator: TA1535, Metabolic Activation: HAMSTER, LIVER, S-9, AROCLOR 1254, Method: STANDARD PLATE inactive; negative | Test System: AMES SALMONELLA TYPHIMURIUM, Strain/Indicator: TA1535, Metabolic Activation: NONE, Method: STANDARD PLATE inactive; negative | Test System: AMES SALMONELLA TYPHIMURIUM, Strain/Indicator: TA1535, Metabolic Activation: RAT, LIVER, S-9, AROCLOR 1254, Method: STANDARD PLATE inactive; negative | Test System: AMES SALMONELLA TYPHIMURIUM, Strain/Indicator: TA1537, Metabolic Activation: HAMSTER, LIVER, S-9, AROCLOR 1254, Method: STANDARD PLATE inactive; negative | Test System: AMES SALMONELLA TYPHIMURIUM, Strain/Indicator: TA1537, Metabolic Activation: NONE, Method: STANDARD PLATE inactive; negative | Test System: AMES SALMONELLA TYPHIMURIUM, Strain/Indicator: TA1537, Metabolic Activation: RAT, LIVER, S-9, AROCLOR 1254, Method: STANDARD PLATE inactive; negative | Test System: AMES SALMONELLA TYPHIMURIUM, Strain/Indicator: TA1538, Metabolic Activation: HAMSTER, LIVER, S-9, AROCLOR 1254, Method: STANDARD PLATE inactive; negative | Test System: AMES SALMONELLA TYPHIMURIUM, Strain/Indicator: TA1538, Metabolic Activation: NONE, Method: STANDARD PLATE inactive; negative | Test System: AMES SALMONELLA TYPHIMURIUM, Strain/Indicator: TA1538, Metabolic Activation: RAT, LIVER, S-9, AROCLOR 1254, Method: STANDARD PLATE inactive; negative | Test System: E. COLI, Strain/Indicator: WP2 UVRA, Metabolic Activation: NONE, Method: PREINCUBATION inactive; negative | Test System: MOUSE LYMPHOMA, Strain/Indicator: L5178Y (TK+/TK-), Metabolic Activation: NONE, Method: SUSPENSION/PLATE inactive; negative. reevaluation of results: negative
